Holding throughout (experiment): inhibition of tumour cell growth, NCI panel, 48 h
Test [1] deals with ACHN renal.
Test [2] relates to HL-60(TB) leukemia.
Test [3] concerns NCI-H226 lung.
In test [4] the test system is NCI-H23 lung.
In test [5] the test system is RXF 393 renal.
For test [6], the system named is SK-MEL-28 melanoma.
Test [7] concerns SK-OV-3 ovarian.
The test system of test [8] is SW-620 colon.
Test [9] concerns UACC-257 melanoma.
Test [10] has as its system UO-31 renal.

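A five-concentration, 48-hour dose response in 96-well plates underlies each endpoint, interpolated linearly between surrounding concentrations. GI50 = concentration required for 50% inhibition of growth. At the TGI there is no net growth.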 Some results are limits rather than exact numbers.

For `COc1cccc(NC(=O)CC(=O)N2N=C(N(CCC#N)c3ccc(Cl)cc3)CC2c2ccccc2)c1` (stereo not given), the TGI in test [1], in [2], in test [3], in test [4], in test [5] and in test [6] was over 100 µM each time. For the same molecule, the TGI in [7], in test [8], in [9] and in [10] was over 100 µM each time.

Regarding `COC(=O)[C@]12CC[C@@H](C)[C@H](C)[C@@H]1C1=CC[C@@H]3[C@@]4(C)C[C@@H](OC(C)=O)[C@H](O)[C@@](C)(COC(C)=O)[C@@H]4[C@H](O)C[C@@]3(C)[C@]1(C)CC2`, the GI50 in test [1] was 2.83 µM; in test [2], 2.11 µM; in test [3], 3.19 µM; in test [4], 2.73 µM; in test [5], 2.13 µM; in test [6], 2.42 µM. Further, the GI50 in [7] was 3.27 µM; in test [8] it was 2.75 µM; in test [9], 2.06 µM; in test [10], 2.01 µM. The TGI came out at 9.17 µM in test [1]; 5.42 µM in [2]; 8.54 µM in [3]; 8.44 µM in [4]; 5.05 µM in [5]; 6.7 µM in test [6]. Moreover, the TGI in [7] stood at 10.3 µM; in [8], 8.76 µM; in test [9], 5.92 µM; in test [10], 7.2 µM.

Take `COC(=O)/C=C/C=C(c1ccccc1)c1ccccc1`: the GI50 in test [1] is 5.56 µM; in test [2], 3.26 µM; in test [3], 14.3 µM; in test [4], 16.3 µM; in test [5], 6.24 µM; in test [6] it was 7.84 µM. Besides, the GI50 in test [7] was 5.93 µM; in test [8], 3.03 µM; in test [9], 8.82 µM; in test [10], 3.27 µM. Besides, the TGI in test [1] was over 100 µM; in test [2], 26.1 µM; in test [3], over 100 µM; in test [4] it was over 100 µM; in [5], 30 µM; in [6], over 100 µM. Moreover, the TGI in test [7] was 48.9 µM; in test [8], over 100 µM; in [9], over 100 µM; in test [10], 37.8 µM.

On to `COc1cccc(/C=C/C(=O)c2cccc(Nc3nc(Nc4ccccc4)nc(Nc4ccccc4)n3)c2)c1`, for which the GI50 in test [1] was 67.3 µM; in test [2], 10.5 µM; in [3], 24.2 µM; in test [4], 21.3 µM; in test [5] it was 10.7 µM; in [6] it was 20.8 µM. Moreover, the GI50 in test [7] was over 78.5 µM; in test [8], 3.68 µM; in test [9] it was over 56 µM; in test [10], 7.36 µM. Besides, the TGI in test [1] was over 100 µM; in test [2] it was 43.6 µM; in test [3] it was over 67.9 µM; in test [4] it was over 100 µM; in test [5], 35.6 µM; in test [6] it was 56.2 µM. Also, the TGI in test [7] was over 100 µM; in test [8], over 48.3 µM; in test [9], over 100 µM; in [10], 57.5 µM.

Take `COc1ccc(C(=O)/C=C/c2ccc(/C=C/c3cc(OC)c(OC)c(OC)c3)cc2)cc1`: the GI50 in test [1] is 11.6 µM; in test [2] it was 4.49 µM; in test [3], 3.57 µM; in test [4], 5.39 µM; in [5], 8.01 µM; in test [6], 16.9 µM. The GI50 in test [7] is 15.6 µM; in [8] it was 4.5 µM; in test [9], 9 µM; in [10], 4.64 µM. For the same molecule, the TGI in test [1] was over 100 µM; in test [2], over 100 µM; in [3], 22.8 µM; in [4] it was 65.9 µM; in [5], 43.6 µM; in [6] it was over 100 µM. The TGI in [7] is 64.5 µM; in test [8], over 100 µM; in [9] it was over 100 µM; in test [10] it was over 100 µM.

Regarding `CCCCCCCCCc1cc(=O)c2ccc(OCc3ccccc3)cc2o1`, the TGI is over 100 µM in test [1]; 46.4 µM in [2]; over 100 µM in test [3]; over 100 µM in test [4]; over 100 µM in test [5]; over 100 µM in [6]. The TGI in test [7], in test [8], in test [9] and in test [10] was over 100 µM each time.

On to `COc1c2c(c3c(c1CCC(=O)O)OC(C)(C)C=C3)OC(C)(C)C=C2`, for which the TGI in test [1], in test [2], in test [3], in test [4], in test [5] and in [6] was over 100 µM throughout. Moreover, the TGI in [7], in [8], in [9] and in [10] was over 100 µM throughout.

With `COC(=O)CCC1CCc2c(OC)ccc(O)c2C1=O` (stereo not given), the TGI in test [1] is over 100 µM; in test [2], over 100 µM; in [3], 84.1 µM; in test [4], over 100 µM; in test [5], over 100 µM; in [6] it was over 100 µM. Besides, the TGI in test [7], in [8], in [9] and in test [10] was over 100 µM each time.

Regarding `O=C(CC(=O)CC(O)(C(F)(F)F)C(F)(F)F)CC(O)(C(F)(F)F)C(F)(F)F`, the TGI in test [1], in test [2], in [3], in [4], in test [5] and in test [6] was over 10 µM throughout. For the same molecule, the TGI in test [7], in test [8], in test [9] and in test [10] was over 10 µM throughout.

Regarding `CCN(CC)CCn1ccc(=O)c2cc3c(=O)ccn(CCN(CC)CC)c3c(C)c21`, the TGI in test [1] was 20.1 µM; in test [2] it was 3.54 µM; in [3], 23.8 µM; in test [4], 19.3 µM; in test [5], 14.1 µM; in [6] it was 35.1 µM. Moreover, the TGI came out at 15.9 µM in [7], 5.26 µM in test [8], 33.9 µM in [9] and 17.1 µM in [10].

Take `O=C1OC(=O)C(c2c[nH]c3ccccc23)=C1c1c[nH]c2ccccc12`: the GI50 in test [1], in [2], in [3], in test [4], in test [5] and in test [6] was over 25 µM in each case. The GI50 in [7] is over 25 µM; in test [8], over 25 µM; in test [9] it was over 25 µM; in test [10], 8.73 µM. The TGI in test [1], in test [2], in test [3], in test [4], in test [5] and in test [6] was over 25 µM each time. Further, the TGI in test [7], in test [8], in [9] and in test [10] was over 25 µM in each case.

For `C[C@@H](C(=O)Nc1ccc(Cl)cc1)C1CCC(c2ccnc3ccc(F)cc23)CC1` (stereo not given in full), the GI50 in test [1] was 4.61 µM; in test [2], 5.22 µM; in test [3], 13.7 µM; in test [4] it was 3.93 µM; in test [5], 3.6 µM; in test [6] it was 10.4 µM. Also, the GI50 is 15.3 µM in [7], 19 µM in [8], 13.3 µM in test [9] and 3.94 µM in test [10]. In addition, the TGI in test [1] is over 100 µM; in test [2], 24.7 µM; in test [3], over 100 µM; in test [4] it was 56.4 µM; in test [5], 26.7 µM; in test [6], over 100 µM. Moreover, the TGI in test [7] was 73.8 µM; in test [8] it was over 100 µM; in test [9], 53.7 µM; in test [10] it was over 100 µM.

On to `CC(=O)NNc1nc(C)c(C(=O)NNC(=O)C(=O)Nc2ccccc2C#N)s1`, for which the TGI in [1], in test [2], in test [3], in test [4], in test [5] and in test [6] was over 100 µM throughout. In addition, the TGI in test [7], in [8], in test [9] and in [10] was over 100 µM throughout.
